# In US12679878B2, “CRF2 receptor agonists and their use in therapy” (SANOFI, priority 2020, dated 2026):
# Like-named read-outs stand apart in the source and are kept apart here. Starred links: 1 amine or outer side, 2 acyl side, 3 side chain; linkers in the order of their positions; H or OH if unused. Non-standard residues stand in square brackets, D forms with d. Residues, ends and D or L forms follow the SMILES beside them. Groups on a side chain read outwards from the residue. *: point of attachment. C16 diacid = O=C(O)CCCCCCCCCCCCCCC(=O)*; γGlu = O=C(O)[C@H](CCC(=O)[*:2])N[*:1]; Aib = CC(C)(N)C(=O)O
# Columns and labels:
# [1] = In vitro plasma stability, rat plasma (Example 19.11); assay type: in vitro ADME, Sprague Dawley rats; parameters: remaining at 2 h: dose or concentration left out as unconfirmed; details: 37° C.; for remaining at 2 h: male, Sprague Dawley, rat, plasma
# Experimental: (§1) In vitro plasma metabolic stability was studied in male Sprague Dawley rats and human. Test compound were incubated […] for 2 hours at 37° C. At each time point (0, 0.25, 1 and 2 h), samples were prepared for analysis by means of a single step protein precipitation technique by adding 150 μL of ethanol, 0.1% formic acid to 50 μL aliquots of plasma. Samples were mixed by vortex for homogeneity and then subjected to centrifugation at 14000 rpm for 15 min. The supernatant (100 μL) was collected, diluted with 100 μL of water, 0.1% formic acid and analyzed by LC-HRMS (TripleTOF 6600+, AB Sciex). For each test compound, the area ratios at each time point were compared to the 0 h area ratio and converted to a percentage remaining.
# human CRF2α receptor = biological target: T1, human CRF2α receptor (Homo sapiens, UniProt Q13324); experiment: cAMP agonism at human CRF2α receptor in TeloHEAC cells, FA modified peptides (Example 19.9); assay type: cell-based; details: 0% HSA, relative to urocortin 2
# T1 construct: expressed in transfected cells; host or cells: TeloHEAC
# T1 sequence (Q13324 1-411): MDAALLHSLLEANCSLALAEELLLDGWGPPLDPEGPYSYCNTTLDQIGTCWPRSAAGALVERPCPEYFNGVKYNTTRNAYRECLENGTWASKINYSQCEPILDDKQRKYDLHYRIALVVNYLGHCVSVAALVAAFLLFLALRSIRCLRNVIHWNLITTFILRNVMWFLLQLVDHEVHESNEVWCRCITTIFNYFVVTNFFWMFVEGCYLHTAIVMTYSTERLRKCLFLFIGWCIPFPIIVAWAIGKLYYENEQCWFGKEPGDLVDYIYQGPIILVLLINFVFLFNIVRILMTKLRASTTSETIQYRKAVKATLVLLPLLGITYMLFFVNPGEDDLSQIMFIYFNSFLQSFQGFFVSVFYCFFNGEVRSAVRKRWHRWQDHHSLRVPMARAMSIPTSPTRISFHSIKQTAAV
# How it was run: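 Efficacy and EC50 are referenced to 100 nM urocortin 2 as 100%, with cAMP measured as the 665/620 nm HTRF ratio after 1 h at room temperature. Compounds (0.5 mM DMSO stock, 16 twofold dilutions) acted 30 min at 37 °C on CRF2α-expressing TeloHEAC cells, buffer containing IBMX and 0% or 0.2% HSA.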
# [2] = Buffer solubility by LC-UV, pH 7.4 phosphate and pH 4.5 acetate (Example 19.11); assay type: physicochemical; details: target 10 mg/mL
# Experimental: (§2) As for example 15 above, also the chemical stability of representative examples of these FA modified peptides has been assessed, using LC-UV instead of light scattering. Solubility and chemical stability were studied in 100 mM phosphate buffer (pH 7.4) and 100 mM acetate buffer (pH 4.5). Test compound powders were dissolved in both buffers at a target concentration of 10 mg/mL and incubated for 1 hour at room temperature. After centrifugation at 2500 rcf for 15 minutes, […] of supernatant was diluted with […] of the incubation buffer and analyzed by LC-UV (Acquity UPLC-DAD, Waters). Solubility was calculated by comparing the peak area of the test compound in the buffer sample with the peak area of the same compound dissolved at 0.5 mg/ml in water:acetonitrile 1:1, 0.1% formic acid.
# [3] = In vitro plasma stability, human plasma (Example 19.11); assay type: in vitro ADME; parameters: dose or concentration left out as unconfirmed; details: 37° C.
# Experimental: as §1
# CRF1R receptor = biological target: T2, CRF1R receptor (Homo sapiens, UniProt P34998); experiment: cAMP activity at anti-target CRF1R, CHO-K1 cell line clone 2 (Example 19.10); assay type: cell-based; details: for Emax: 100% = Sauvagine at 100 nM; for CRF1/CRF2 ratio: ratio of CRF1 EC50 to CRF2 EC50
# T2 construct: host or cells: CHO-K1 clone 2
# T2 sequence (P34998 24-415): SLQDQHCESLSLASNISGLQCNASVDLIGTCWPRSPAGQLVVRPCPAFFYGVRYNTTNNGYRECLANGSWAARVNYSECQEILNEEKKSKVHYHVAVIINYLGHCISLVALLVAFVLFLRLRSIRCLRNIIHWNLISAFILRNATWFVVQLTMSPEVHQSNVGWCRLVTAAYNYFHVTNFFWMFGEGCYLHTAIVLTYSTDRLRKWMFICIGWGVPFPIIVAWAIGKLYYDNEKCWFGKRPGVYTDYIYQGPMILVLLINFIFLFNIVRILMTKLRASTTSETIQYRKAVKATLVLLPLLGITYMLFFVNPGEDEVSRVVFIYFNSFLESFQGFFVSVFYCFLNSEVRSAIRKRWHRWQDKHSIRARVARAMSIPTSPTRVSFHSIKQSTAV
# How it was run: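 The cAMP read-out used the same protocol as the previous assay, except that Sauvagine at 100 nM set the 100% activation control. Cells were CHO-K1 clone 2 overexpressing CRF1R, cultured in F12 medium with 10% FBS and G418 and stored frozen until use.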
# [4] = Chemical stability as % loss by LC-UV, 28 days 40° C. vs 5° C. (Example 19.11); assay type: physicochemical
# Experimental: as §2
# From the centrifuged supernatant, two additional […] aliquots were collected and diluted with […] of incubation buffer. One aliquot was stored at 5° C., while the other was stored at 40° C. After 28 days, the samples were analyzed by LC-UV. Chemical stability was calculated as % loss using the following equations: • Chemical stability (as % loss)=[(purity after 28 days at 5° C.)−(purity after 28 days at 40° C.)]×100/(purity after 28 days at 5° C.) % purity=[(peak area compound)×100/(total peak area)]
# [5] = pH 7.4, 100 mM phosphate buffer
# [6] = 0% HSA, CRF1R CHO-K1 clone 2, read-out: EC50 [nM] 0% HSA
# [7] = Table 20 side-to-side comparison, read-out: CRF1 EC50
% remaining at 2 hours ([1]; 120 min) [%],remaining at 2 h [1] [%],EC50 (human CRF2α receptor) [nM],"solubility at 1 h ([2]; pH 4.5, 100 mM acetate buffer) [mg/mL]","solubility at 1 h [2, 5] [mg/mL]",remaining at 2 h [3] [%],EC50 (CRF1R receptor; [6]) [nM],Emax (CRF1R receptor; CRF1R CHO-K1 clone 2) [%],EC50 (CRF1R receptor; [7]) [nM],CRF1/CRF2 ratio (CRF1R receptor),% loss (chemical stability) ([4]; pH 4.5) [%],% loss (chemical stability) ([4]; pH 7.4) [%],Compound
92,102,0.44,8.2,8.8,97,> 100,43.8,> 100,>500,0,31,CC[C@H](C)[C@H](N)C(=O)N[C@H](C(=O)N[C@@H](CC(C)C)C(=O)N[C@@H](CO)C(=O)N[C@@H](CC(C)C)C(=O)N[C@@H](CC(=O)O)C(=O)N[C@@H](C(=O)N1CCC[C@H]1C(=O)N[C@H](C(=O)N[C@@H](CCCCN)C(=O)N[C@@H](CC(C)C)C(=O)N[C@@H](CCCCNC(=O)CC[C@H](NC(=O)CCCCCCCCCCCCCCC(=O)O)C(=O)O)C(=O)N[C@@H](CCC(N)=O)C(=O)N[C@H](C(=O)N[C@@H](CC(C)C)C(=O)N[C@@H](CC(C)C)C(=O)N[C@@H](CCCCN)C(=O)N[C@@H](CCC(N)=O)C(=O)N[C@@H](CCC(=O)O)C(=O)N[C@@H](CCCNC(=N)N)C(=O)N[C@@H](CCC(N)=O)C(=O)N[C@@H](CCCCN)C(=O)NC(C)(C)C(=O)N[C@@H](CCC(N)=O)C(=O)N[C@@H](CCCNC(=N)N)C(=O)N[C@@H](CCC(=O)O)C(=O)N[C@@H](CCC(N)=O)C(=O)N[C@@H](C)C(=O)N[C@@H](CCC(=O)O)C(=O)N[C@@H](CCCCN)C(=O)N[C@@H](CC(N)=O)C(=O)N[C@@H](CCCCN)C(=O)N[C@@H](CCC(N)=O)C(=O)N[C@H](C(=O)N[C@@H](CC(C)C)C(=O)N[C@@H](C)C(=O)N[C@@H](CCC(N)=O)C(=O)N[C@H](C(N)=O)C(C)C)[C@@H](C)CC)[C@@H](C)CC)[C@@H](C)CC)C(C)C)C(C)C [compound 187] (H-IVLSLD[dV]PIKLK([γGlu-C16 diacid])QILLKQERQK[Aib]QREQAEKNKQILAQV-NH2)
,101,3.49,9,6.3,97,> 100,15,> 100,>500,0,48,CC[C@H](C)[C@H](N)C(=O)N[C@H](C(=O)N[C@@H](CC(C)C)C(=O)N[C@@H](CO)C(=O)N[C@@H](CC(C)C)C(=O)N[C@@H](CC(=O)O)C(=O)N[C@@H](C(=O)N1CCC[C@H]1C(=O)N[C@H](C(=O)N[C@@H](CCCCN)C(=O)N[C@@H](CC(C)C)C(=O)N[C@@H](CCCCNC(=O)CC[C@H](NC(=O)CCCCCCCCCCCCCCC(=O)O)C(=O)O)C(=O)N[C@@H](CCC(N)=O)C(=O)N[C@H](C(=O)N[C@@H](CC(C)C)C(=O)N[C@@H](CC(C)C)C(=O)N[C@@H](CCCCN)C(=O)N[C@@H](CCC(N)=O)C(=O)N[C@@H](CCC(=O)O)C(=O)N[C@@H](CCCNC(=N)N)C(=O)N[C@@H](CCC(N)=O)C(=O)N[C@@H](CCCCN)C(=O)N[C@@H](CCCCN)C(=O)NC(C)(C)C(=O)N[C@@H](CCCNC(=N)N)C(=O)N[C@@H](CCC(N)=O)C(=O)N[C@@H](CCCCN)C(=O)N[C@@H](C)C(=O)N[C@@H](CCC(=O)O)C(=O)N[C@@H](CCCCN)C(=O)N[C@@H](CC(N)=O)C(=O)N[C@@H](CCCCN)C(=O)N[C@@H](CCC(N)=O)C(=O)N[C@H](C(=O)N[C@@H](CC(C)C)C(=O)N[C@@H](C)C(=O)N[C@@H](CCC(N)=O)C(=O)N[C@H](C(N)=O)C(C)C)[C@@H](C)CC)[C@@H](C)CC)[C@@H](C)CC)C(C)C)C(C)C [compound 189] (H-IVLSLD[dV]PIKLK([γGlu-C16 diacid])QILLKQERQKK[Aib]RQKAEKNKQILAQV-NH2; N-terminus assumed)
,85,0.11,7.3,0.7,101,> 100,21.6,,,,,CC[C@H](C)[C@H](N)C(=O)N[C@H](C(=O)N[C@@H](CC(C)C)C(=O)N[C@@H](CO)C(=O)N[C@@H](CC(C)C)C(=O)N[C@@H](CC(=O)O)C(=O)N[C@@H](C(=O)N1CCC[C@H]1C(=O)N[C@H](C(=O)NCC(=O)N[C@@H](CC(C)C)C(=O)N[C@@H](CCCCNC(=O)CC[C@H](NC(=O)CCCCCCCCCCCCCCC(=O)O)C(=O)O)C(=O)N[C@@H](CCC(N)=O)C(=O)N[C@H](C(=O)N[C@@H](CC(C)C)C(=O)N[C@@H](CC(C)C)C(=O)N[C@@H](CCCCN)C(=O)N[C@@H](CCC(N)=O)C(=O)N[C@@H](CCC(=O)O)C(=O)N[C@@H](CCCNC(=N)N)C(=O)N[C@@H](CCC(N)=O)C(=O)N[C@@H](CCCCN)C(=O)N[C@@H](CCCCN)C(=O)NC(C)(C)C(=O)N[C@@H](CCCNC(=N)N)C(=O)N[C@@H](CCC(=O)O)C(=O)N[C@@H](CCC(N)=O)C(=O)N[C@@H](C)C(=O)N[C@@H](CCC(=O)O)C(=O)N[C@H](C(=O)N[C@@H](CC(N)=O)C(=O)N[C@@H](CCCCN)C(=O)N[C@@H](CCC(N)=O)C(=O)N[C@H](C(=O)N[C@@H](CC(C)C)C(=O)N[C@@H](C)C(=O)N[C@@H](CCC(N)=O)C(=O)N[C@H](C(N)=O)C(C)C)[C@@H](C)CC)[C@@H](C)O)[C@@H](C)CC)[C@@H](C)CC)C(C)C)C(C)C [compound 194] (H-IVLSLD[dV]PIGLK([γGlu-C16 diacid])QILLKQERQKK[Aib]REQAETNKQILAQV-NH2; N-terminus assumed)
